{
  "source": "patent US20180369186A1",
  "about": "“METHOD FOR MODULATING AUTOPHAGY AND APPLICATIONS THEREOF” (JAWAHARLAL NEHRU CENTRE FOR ADVANCED SCIENTIFIC RESEARCH, priority 2015, published 2018)",
  "key": {"lysosome": {"tested_on": "lysosome", "assay": "Lysosomal function (lysotracker, LAMP1) in HeLa cells", "format": "cell-based, human"}, "[1]": {"assay": "Open field test in MPTP mice", "format": "in vivo", "details": "5 mg/kg", "protocol": "All the behavioural experiments are done on 3-4 month old, male C57/B16 mice. Experimenters are blind to the drug injected animals. Experimenters handle mice used for behavioral experiments for 3 consecutive days prior to the training paradigm. Behavioral experiments are designed in an order of low to high stress activity for mice. Therefore, Open Field Test is conducted in forenoon while rotarod is performed in the afternoon.\nMice were habituated to the behaviour room for 15 minutes every day before start of experiments. The light intensity is maintained at 100 lux throughout the experiment. Mice are weighed every day before training or test to ensure their good health. Mice are randomly allocated into three treatment cohorts: placebo control, MPTP and 6-Bio. Data is plotted using GraphPad prism 5 software.\nOpen field arena (50 cm×50 cm×45 cm) is custom-made (JNCASR) using plywood and the internal surface was coated with white polish. Mice are trained in open field for 2 consecutive days prior to drug injection. […] The activity is video recorded (SONY® color video camera, Model no. SSC-G118) using a software (SMART v3.0.04 from Panlah, Harvard Apparatus, USA). […] Distance travelled is analyzed offline by an experimenter who was not involved in performing the experiment."}, "[2]": {"tested_on": "lace plant (Aponogeton madagascariensis) cells", "assay": "Lace plant leaf MDC staining of punctate structures", "format": "cell-based", "protocol": "Axenic lace plant cultures are grown in magenta boxes and prepared according to Gunawardena et al. Leaves in the window stage are removed from the corm and rinsed thoroughly with distilled water prior to being sectioned into 2 mm^2 pieces. For starvation treatments, window stage leaves are removed from the plant, placed in distilled water and kept in the dark overnight.\nLeaf sections are stained with monodansylcadaverine (MDC; 300 μM) (Sigma, D4008) and simultaneously treated with autophagy modulators for 2 hours in the dark. (1 hour vacuum infiltration at 15 psi). Treatment times, along with stain and modulator applications are optimized using concentration gradients followed by microscopy. The optimized concentrations are 5 μM rapamycin (Enzo Life Sciences (BML A275-0005), 5 μM wortmannin (Santa Cruz Biotechnology, sc-3505), 1 μM concanamycin A (Santa Cruz Biotechnology, sc-202111), 50 μM Bay 11 (Sigma, B5556) and 50 μM ZPCK (Sigma, 860794).\nTissue sections are then rinsed and mounted in distilled water prior to being scanned using a Nikon Eclipse Ti confocal microscope (Nikon 40X/1.30, Plan Fluor, 405 nm excitation and 450/30 nm emission). Areoles in the early phases of PCD are scanned to avoid cellular debris. The mean number of puncta are quantified for each treatment group with a minimum of four independent experiments using NIS Elements Advanced Research software. Additionally, starvation treatment leaves are also exposed to 5 μM, wortmannin, 50 μM Bay11 and 50 μM ZPCK treatments and then qualitatively assessed via confocal microscopy."}, "p62/SQSTM1": {"tested_on": "p62/SQSTM1", "assay": "p62 aggregate immunofluorescence in MEFs", "format": "cell-based, mouse", "details": "5 μM, 24 h and 48 h", "protocol": "Immunofluorescence analysis in MEFs is carried out by fixing the cells with 4% methanol free paraformaldehyde for 15 minutes, permeabilised with 0.5% TritonX-100 in PBS for 10 minutes, and then blocking with 5% FES in PBS for 30 minutes at room temperature, along with PBS washes in between every steps. Anti-p62 antibody (Progen Biotechnik, GP62-C) is used at 1:250 dilution in […] in PBS and incubated overnight at 4° C. Cells are then washed and incubated with goat anti-guinea pig Alexa 594 (ThermoFisher Scientific, A-15 11076) secondary antibody at 1:1000 dilution for 1 hour at room temperature. Cells are washed, counterstained with DAPI (ThermoFisher Scientific, D1306) in PBS for 5 minutes, washed again and then mounted using Prolong diamond anti-fade reagent (ThermoFisher Scientific, P36970). Slides are imaged using a Zeiss LSM 510 Meta Confocal Microscope using 100× objective. Analysis is performed by assessing for the percentage of cells displaying an accumulation of endogenous p62-positive aggregates.\nAnalysis of p62 aggregates is done as described previously. […] The percentage of cells with increased p62+ aggregates is quantified by assessing 200 cells per condition from independent experiments, in which a cell with an accumulation of p62+ aggregates was given a score of 1 whereas a cell having basal (low) levels of p62+ aggregates was given a score of 0."}, "Atg8 and Atg5": {"tested_on": "Atg8 and Atg5", "assay": "Co-localization of GFP-Atg8 and Atg5-RedStar in yeast", "format": "cell-based, S. cerevisiae"}, "MAP1LC3B": {"tested_on": "MAP1LC3B", "assay": "MAP1LC3B conversion assay in HeLa cells", "format": "cell-based, human", "protocol": "Total cell lysates are electrophoresed on different 1 percentages of SDS-PAGE based on the desired protein size and transferred onto PVDF membrane at constant current of 2 Ampere for 30 minutes (Transblot turbo, Bio-Rad Inc, USA). Transfer is confirmed by Ponceau S staining of blot and the blots scanned are used as loading controls. Blots are incubated overnight with 5% skim milk in primary antibody (Anti-GFP, Roche #11814460001, Anti-MAP1LC3B, CST #L7543). Secondary antibody used at 1:10.000 is goat anti-mouse (Bio-7 Rad #172-1011) or goat anti-rabbit antibody (Bio-Rad #172-1019) conjugated to HRP. Blots are developed by using ECL substrate (Thermo Scientific #34087 or Bio-Rad #170-5061) and images captured using auto capture program in Syngene G-Box, UK. image J (NIH) are used for quantitation of band intensities.\nFor mammalian cells, following appropriate treatments, cells are washed with ice cold PBS. Cells are then lysed in 100 μl of sample buffer (10% w/v SDS, 10 mM DTT, 20% v/v glycerol, 0.2 Tris-HCL pH 6.8, 0.05% w/v bromophenol blue) and then collected using a rubber cell scraper. The lysates are boiled at 99° C. for 15 minutes and stored at −20° C."}, "EGFR": {"tested_on": "EGFR", "assay": "EGFR trafficking (endocytosis-mediated EGFR degradation)", "format": "cell-based, human", "details": "HeLa; 100 ng/ml EGF; 0-3 hours", "protocol": "HeLa cells are plated on 6 well plates and allowed to attach on the surface. The cells are washed with PBS and then starved in DMEM (serum free media) for 3 hours. Pre-treatment with compounds is carried out for 1 hour, following which they are pulsed with 100 ng/ml of EGF and samples are collected at 0, 1, 2 and 3 hours."}, "[3]": {"details": "nutrient-rich and starvation conditions"}},
  "data": [
    {"smiles": "O=C1Nc2cc(Br)ccc2/C1=C1/Nc2ccccc2/C1=N\\O", "note": "[6-Bio, (2′Z,3′E)-6-Bromoindirubin-3′-oxime]", "values": [
      {"measurement": "LAMP1 positive vesicle intensities and distribution", "setting": "lysosome", "result": "unaltered"},
      {"measurement": "lysotracker staining (lysosome acidification)", "setting": "lysosome; 2 h", "result": "no change in lysosome acidification"},
      {"measurement": "distance travelled, Co versus MPTP", "setting": "[1]; MPTP+Co, day 13", "result": "increased dramatically"},
      {"measurement": "distance travelled, Post versus MPTP", "setting": "[1]; administered after 48 h MPTP", "result": "not protected"}
    ]},
    {"smiles": "Cc1ccc(S(=O)(=O)/C=C/C#N)cc1", "note": "[Bay11, 3-[(4-methylphenyl)sulfonyl]-(2E)-propenenitrile]", "values": [
      {"measurement": "mean number of punctate structures per cell (MDC)", "setting": "[2]; 2 hours, 5 μM wortmannin, 50 μM Bay11, 1 μM concanamycin A, rapamycin, 50 μM ZPCK, control 0.99±0.12", "result": "0.28±0.07"},
      {"measurement": "puncta in overnight starvation leaves", "setting": "[2]; overnight starvation combined with 5 μM wortmannin, 50 μM Bay11 or 50 μM ZPCK", "result": "fewer puncta"},
      {"measurement": "endogenous p62 aggregates", "setting": "p62/SQSTM1", "result": "significant accumulation of endogenous p62 aggregates"},
      {"measurement": "Atg5 punctate structures", "setting": "Atg8 and Atg5; vs single puncta in untreated cells", "result": "multiple puncta"},
      {"measurement": "co-localization between Atg8 and Atg5 dots", "setting": "Atg8 and Atg5; vs untreated cells", "result": "significantly more co-localization"},
      {"measurement": "MAP1LC3B-II/MAP1LC3B-I and MAP1LC3B-II/TUBB ratios, prolonged treatment", "setting": "MAP1LC3B; 12 hours", "result": "significant reduction"},
      {"measurement": "MAP1LC3B-II/TUBB ratio with BFA (autophagosome synthesis)", "setting": "MAP1LC3B; in the presence of BFA", "result": "reduces MAP1LC3B12 II/TUBB ratio"},
      {"measurement": "MAP1LC3B-II/MAP1LC3B-I ratio", "setting": "MAP1LC3B; [3]", "result": "decreases MAP1LC3B-II/MAP1LC3B-I ratio"},
      {"measurement": "MAP1LC3B-II/TUBB ratio", "setting": "MAP1LC3B; [3]", "result": "no significant changes"},
      {"measurement": "degradation of EGFR over time upon EGF treatment", "setting": "EGFR", "result": "no difference in the degradation of EGFR"}
    ]}
  ]
}
